In one assay the target is β-amyloid (1–42) (Aβ42) (Homo sapiens, UniProt P05067). Description: Inhibition of Aβ42 self-aggregation (thioflavin T). The assay is classed as biochemical. The settings on record: for inhibition at 100 µM: read-out: Inhibition of Aβ42 Self-Aggregation. As for the experimental part:
The inhibitory activity of tested hybrids against the self-aggregation of Aβ42 was determined in vitro using the thioflavin T (ThT) fluorimetric assay. According to [84], the ThT test is ideal for preliminary screening of inhibitors of Aβ42 self-aggregation, as it enables the quantitative testing of large numbers of compounds within a relatively short time.
The influence of the inhibitory effect of the test compounds toward Aβ42 self-aggregation was determined using the thioflavin T (ThT) fluorescence method with minor modifications. This assay is based on a specific interaction between the fluorescent dye thioflavin T that binds to the β-sheets of assembled amyloid fibrils leading to a significant increase in fluorescence signal. Therefore, the decrease in ThT fluorescence correlates with the ability of the studied compounds to inhibit the formation of amyloid aggregates.
One mg of lyophilized HFIP-pretreated Aβ42 from BACHEM (Bubendorf, Switzerland) was dissolved in DMSO to obtain a stable initial solution ([Aβ42] = 500 μM); then it was aliquoted and stored at −20 °C.
For the measurement of Aβ42 self-aggregation and amyloid fibril inhibition studies by the tested compounds, aliquots of 500 μM Aβ42 stock solution were diluted in 215 mM Na-phosphate buffer pH = 8.0 to a final concentration of 50 μM Aβ42. Then the samples were incubated for 24 h at 37 °C without stirring in the absence (base level of Aβ42 self-aggregation, control) or presence of the test compounds. Myricetin and propidium iodide were used as reference compounds (positive controls). All compounds were used in a concentration of 100 µM. To quantify Aβ42 fibril formation, after incubation, 5 μM ThT in 50 mM glycine-NaOH buffer pH 8.5 was added to the solutions to a final concentration of 4 μM ThT and the fluorescence was measured at 440 nm (excitation) and 485 nm (emission). Analyses were performed with a FLUOStar Optima microplate reader (LabTech, Ortenberg, Germany). The blanks consisted of 215 mM Na-phosphate buffer, pH = 8.0, 20% (v/v) DMSO or test compounds, respectively. Each assay was run in triplicate.

The test system of another assay is porcine liver CES. Description: In vitro CES inhibition (4-NPA substrate). The assay is classed as biochemical. The settings on record: compound 20 µM, n.a. = not active. From the text:
(§1) Assessment of the esterase profile of new potential anti-AD molecules enables the estimation of both the primary pharmacological effects of the tested compounds—their inhibition of AChE and BChE—and their possible unwanted side effect—inhibition of CES, which hydrolyzes numerous ester-containing drugs. For the esterase profile evaluation, human erythrocyte AChE, equine serum BChE, and porcine liver CES were used. These sources of BChE and CES were employed because of their relatively low cost, high sequence identity to human enzymes, and the exploratory character of this work.
(§2) Chromophore absorbances were measured with a FLUOStar Optima microplate reader (BMG Labtech, Ortenberg, Germany). […] Initially, we used a single concentration of 20 µM for all compounds.

A short description of assay [1]: ABTS radical cation scavenging assay. Further details: key to ABTS^•+ Scavenging Activity, TEAC: TEAC: ratio of compound slope to Trolox slope (Trolox equivalents). The settings on record: 1 h incubation; for IC50: 50% reduction of ABTS radical cation; for ABTS^•+ Scavenging Activity, TEAC: Trolox equivalent, n.a. = not active. How it is done: In the ABTS assay, the dark-green ABTS cation-radical (ABTS^•+) is quenched by interaction with AOs. The consequent decrease in absorbance is followed spectrophotometrically per the previously described method.
Radical scavenging activity of the compounds was assessed using the ABTS radical cation (ABTS^•+) decolorization assay with some modifications. ABTS (2,2′-azinobis-(3-ethylbenzothiazoline-6-sulfonic acid) was purchased from Tokyo Chemical Industry Co., Ltd. (Tokyo, Japan); potassium persulfate (dipotassium peroxodisulfate), Trolox (6-hydroxy-2,5,7,8-tetramethylchroman-2-carboxylic acid), and HPLC-grade ethanol and DMSO were obtained from Sigma-Aldrich (Saint Louis, MO, USA). Aqueous solutions were prepared using deionized water. All tested compounds were dissolved in DMSO.
The solution of cation radical ABTS^•+ was produced by incubation of an aqueous solution of 7 mM ABTS and 2.45 mM potassium persulfate solution in equal quantities for 12–16 h at room temperature in the dark. Radical scavenging capacity of the compounds was analyzed by mixing 10 μL of compound with 240 μL of ABTS^•+ working solution in ethanol (100 μM final concentration). The reaction was monitored for an hour at 30 °C with an interval of 10 min. Data are given for 1 h of incubation of compounds with ABTS^•+. The reduction in absorbance was measured spectrophotometrically at 734 nm using an xMark microplate UV/VIS spectrophotometer (Bio-Rad, Hercules, CA, USA). Ethanol blanks were run in each assay. Values were obtained from five replicates of each sample and three independent experiments.
The standard AO Trolox was used as a reference compound. AO capacity as Trolox equivalent (TEAC) values was determined as the ratio between the slopes obtained from the linear correlation of the ABTS radical absorbance with the concentrations of tested compounds and Trolox. Ascorbic acid was used as a positive control. […]. The compounds were tested in the concentration range of 0.5–100 µM.

For another assay, the target named is T1, EeAChE PAS (Electrophorus electricus, UniProt O42275).
T1 construct: The enzyme was electric eel AChE (EeAChE type VI-S, lyophilized powder, Sigma-Aldrich); purchased Sigma-Aldrich type VI-S; host or cells: electric eel (tissue-derived)
T1 sequence (O42275 24-633): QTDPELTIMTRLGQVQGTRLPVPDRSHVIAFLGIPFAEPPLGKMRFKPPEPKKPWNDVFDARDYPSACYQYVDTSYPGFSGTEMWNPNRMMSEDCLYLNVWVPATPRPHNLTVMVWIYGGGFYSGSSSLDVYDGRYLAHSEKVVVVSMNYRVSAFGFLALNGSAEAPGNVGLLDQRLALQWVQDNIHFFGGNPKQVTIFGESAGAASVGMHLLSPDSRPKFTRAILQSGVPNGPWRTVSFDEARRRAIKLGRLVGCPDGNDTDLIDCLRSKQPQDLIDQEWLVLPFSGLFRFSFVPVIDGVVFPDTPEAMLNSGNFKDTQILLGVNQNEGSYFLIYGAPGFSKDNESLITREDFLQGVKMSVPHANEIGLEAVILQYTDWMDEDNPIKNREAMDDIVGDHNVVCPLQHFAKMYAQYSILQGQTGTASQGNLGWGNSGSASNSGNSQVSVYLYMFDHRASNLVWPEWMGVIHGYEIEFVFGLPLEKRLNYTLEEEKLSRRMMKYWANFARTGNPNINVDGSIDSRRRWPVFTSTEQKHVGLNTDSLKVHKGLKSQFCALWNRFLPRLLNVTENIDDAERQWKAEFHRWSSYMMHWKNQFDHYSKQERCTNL
The assay is classed as binding. The note with it: compound 20 µM; EeAChE 7 µM; propidium iodide 8 µM. From the text:
This method is widely used as a screening approach to assess the potential ability of compounds to block AChE-induced β-amyloid aggregation. This is because when the compounds bind to the AChE PAS, they prevent the binding of β-amyloid, thereby inhibiting its aggregation.
The enzyme was electric eel AChE (EeAChE type VI-S, lyophilized powder, Sigma-Aldrich). We selected this source of AChE for consistency with our other reports and because of the purity, specific activity, and lower cost compared to human AChE.
Propidium iodide (final concentration 8 μM) was then added for a further 15 min incubation, and the fluorescence spectrum was taken (530 nm excitation and 600 nm emission) using a FLUOStar Optima microplate reader. The same concentration of propidium iodide in the Tris buffer was used as the blank. Triplicate determinations were recorded and the results were calculated via the following equation:% Displacement = 100 − (IFAChE+ Propidium + inhibitor/IFAChE + Propidium) × 100, where IFAChE + Propidium = fluorescence intensity of propidium iodide associated with AChE in the absence of the test compound (taken as 100%), and IFAChE + Propidium + inhibitor = fluorescence intensity of propidium iodide associated with AChE in the presence of the test compound.

A short description of the next assay: FRAP assay. The settings on record: Trolox equivalents; 60 min, 37 °C; n.a. = not active. How it is done:
The Ferric Reducing Antioxidant Power (FRAP) test involves reduction of the ferric 2,4,6-tripyridyl-s-triazine complex [Fe(TPTZ)2]^3+ to an intense-blue ferrous complex [Fe(TPTZ)2]^2+ [92], as previously reported. Results are given as Trolox Equivalents (TE).
The FRAP (ferric reducing antioxidant power) assay proposed by Benzie and Strain [92] was modified to be performed in 96-well microplates as described in detail in [53]. The FRAP reagent contained 2.5 mL of 10 mM TPTZ (2,4,6-tris(2-pyridyl)-s-triazine, Sigma-Aldrich) solution in 40 mM HCl, 2.5 mL of 20 mM FeCl3 (Sigma-Aldrich) in distilled water and 25 mL of 0.3 M acetate buffer (pH 3.6). Aliquots of 10 µL of the test compound dissolved in DMSO (0.5 mM) were placed in quadruplicate. Absorbance was measured at a wavelength of 593 nm after 60 min incubation at 37 °C. In each case, Trolox was used as a reference compound to obtain the standard curve. The AO activity was calculated with respect to the activity of Trolox and expressed as Trolox equivalents (TE)—the values calculated as the ratio of the concentrations of Trolox and the test compound resulting in the same effect on ferric reducing activity.

Another assay concerns the target T2, human erythrocyte AChE (Homo sapiens, UniProt P22303).
T2 construct: human erythrocyte AChE, equine serum BChE, and porcine liver CES were used; purchased Sigma-Aldrich; host or cells: human erythrocytes (tissue-derived)
Description: biochemical. The settings on record: mean ± SEM, n = 3, read-out: Inhibitory activity against AChE, IC50.
Source text: as §1, §2

The target of another assay is T3, equine serum BChE (Equus caballus, UniProt P81908).
T3 construct: human erythrocyte AChE, equine serum BChE, and porcine liver CES were used; purchased Sigma-Aldrich; host or cells: equine serum (tissue-derived)
T3 sequence (P81908 whole entry): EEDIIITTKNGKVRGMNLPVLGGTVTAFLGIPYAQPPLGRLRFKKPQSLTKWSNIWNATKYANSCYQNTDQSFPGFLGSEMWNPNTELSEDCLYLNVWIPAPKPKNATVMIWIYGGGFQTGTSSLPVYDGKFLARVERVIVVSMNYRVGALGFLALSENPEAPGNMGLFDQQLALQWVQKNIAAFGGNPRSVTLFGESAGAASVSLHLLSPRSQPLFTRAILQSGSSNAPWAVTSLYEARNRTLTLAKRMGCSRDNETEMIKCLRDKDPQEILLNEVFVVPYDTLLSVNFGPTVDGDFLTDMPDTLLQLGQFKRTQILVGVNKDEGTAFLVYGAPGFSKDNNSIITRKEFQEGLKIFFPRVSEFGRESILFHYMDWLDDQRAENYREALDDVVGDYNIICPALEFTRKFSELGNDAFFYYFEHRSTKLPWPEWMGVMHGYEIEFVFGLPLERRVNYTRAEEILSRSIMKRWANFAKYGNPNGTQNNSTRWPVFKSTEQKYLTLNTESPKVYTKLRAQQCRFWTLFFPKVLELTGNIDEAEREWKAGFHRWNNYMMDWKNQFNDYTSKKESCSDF
Description: biochemical. The note with it: mean ± SEM, n = 3, read-out: Inhibitory activity against BChE, IC50.
Source text: as §1, §2

Setting [2] is: Aβ42 50 µM, compound 100 µM, 24 h, 37 °C, thioflavin T.

Experimental findings from paper PMC9916969 (International Journal of Molecular Sciences, 2023) are described below.

Each structure is given as a SMILES string. Where “and” joins values, the source holds several entries; their conditions need not be identical. Equal values may be shown once. Read-outs that look alike come from different tables or passages of the source.

For orientation: inhibition means the drop in the measured response relative to a control, in per cent. One may read the IC50 as the midpoint of a concentration-inhibition curve.

T2 sequence (P22303 32-617 isoform P22303-2 limits assumed): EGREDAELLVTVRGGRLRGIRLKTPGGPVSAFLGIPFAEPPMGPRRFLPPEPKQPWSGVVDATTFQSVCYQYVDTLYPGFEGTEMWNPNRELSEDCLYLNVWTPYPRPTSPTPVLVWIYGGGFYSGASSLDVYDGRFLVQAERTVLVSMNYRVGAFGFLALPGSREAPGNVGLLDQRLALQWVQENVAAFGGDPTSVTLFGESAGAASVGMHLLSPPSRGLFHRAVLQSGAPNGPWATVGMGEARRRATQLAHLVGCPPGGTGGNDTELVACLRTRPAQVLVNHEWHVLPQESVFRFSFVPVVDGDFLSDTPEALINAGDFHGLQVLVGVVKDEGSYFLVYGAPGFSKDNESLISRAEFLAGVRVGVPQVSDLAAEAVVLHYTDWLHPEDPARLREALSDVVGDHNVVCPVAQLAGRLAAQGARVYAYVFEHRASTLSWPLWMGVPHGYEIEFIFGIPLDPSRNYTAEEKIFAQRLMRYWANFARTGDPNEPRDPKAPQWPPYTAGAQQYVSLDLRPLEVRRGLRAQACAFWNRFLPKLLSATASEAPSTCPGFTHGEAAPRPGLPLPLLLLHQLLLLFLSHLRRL
Chain of β-amyloid (1–42) (Aβ42) (P05067 672-713 limits assumed): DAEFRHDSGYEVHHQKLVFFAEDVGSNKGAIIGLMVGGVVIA

Regarding `O=C(NCCCCNc1c2c(nc3ccccc13)CCCC2)c1ccccc1O` [5a], on β-amyloid (1–42) (Aβ42) (setting [2]), the inhibition at 100 µM worked out at 20.7 ± 1.6%. The “Inhibitory activity against CES, inhibition at 20 µM” value (from here on “Inhibitory activity against CES”) with porcine liver CES is given as 1.6 ± 1.1%. In addition, in assay [1], the IC50 turned out to be 25300 ± 1100 nM and the “ABTS^•+ Scavenging Activity, TEAC” value is listed as 0.73 ± 0.04. Besides, at EeAChE PAS, the “Propidium Displacement from EeAChE PAS” value is on record as 11.8 ± 0.9%. Also, in “FRAP assay”, the “FRAP, TE” value is 0.02.
As to `COc1ccccc1C(=O)NCCCCNc1c2c(nc3ccccc13)CCCC2` [6a], the inhibition at 100 µM at β-amyloid (1–42) (Aβ42) (setting [2]) is 12.3 ± 0.9%. Further, the “Inhibitory activity against CES” value with porcine liver CES was 3.4 ± 0.7%. Besides, the “ABTS^•+ Scavenging Activity, TEAC” value in assay [1] was 0.02 (n.a.). The IC50 came out at 1920 ± 130 nM at human erythrocyte AChE and 10.5 ± 0.7 nM at equine serum BChE. Besides, on EeAChE PAS, the “Propidium Displacement from EeAChE PAS” value is on record as 10.2 ± 0.9%. The “FRAP, TE” value in the assay “FRAP assay” is reported as 0.03.
Turning to `O=C(NCCCCNc1c2c(nc3ccccc13)CCCC2)c1cc(F)c(F)cc1O` [7a, 4,5-Difluoro-2-hydroxy-N-[4-(1,2,3,4-tetrahydroacridin-9-ylamino)butyl]benzamide], the inhibition at 100 µM on β-amyloid (1–42) (Aβ42) (setting [2]) was found to be 17.4 ± 1.2%. In addition, the “Inhibitory activity against CES” value in the assay on porcine liver CES came out at 4.3 ± 0.9%. Also, the IC50 was over 200000 nM in assay [1], 500 ± 30 nM at human erythrocyte AChE and 29.1 ± 2.2 nM at equine serum BChE. In assay [1], the “ABTS^•+ Scavenging Activity, TEAC” value is 0.06 and 0.060 ± 0.002. For the same compound, the “Propidium Displacement from EeAChE PAS” value at EeAChE PAS was 10.4 ± 0.9%.
In the case of `COc1cc(F)c(F)cc1C(=O)NCCCCNc1c2c(nc3ccccc13)CCCC2` [8a, 4,5-Difluoro-2-methoxy-N-[4-(1,2,3,4-tetrahydroacridin-9-ylamino)butyl]benzamide], the inhibition at 100 µM on β-amyloid (1–42) (Aβ42) (setting [2]) was determined as 10.4 ± 0.9%. In the assay with porcine liver CES, the “Inhibitory activity against CES” value is 6.5 ± 1.1%. Also, the IC50 came to 1220 ± 70 nM on human erythrocyte AChE and 54.7 ± 3.4 nM on equine serum BChE. Besides, the “Propidium Displacement from EeAChE PAS” value on EeAChE PAS is 13.2 ± 1.0%. Besides, in “FRAP assay”, the “FRAP, TE” value is given as 0.03.
Regarding `Oc1ccccc1C=NCCCCNc1c2c(nc3ccccc13)CCCC2` [10a, 2-[4-(1,2,3,4-Tetrahydroacridin-9-ylamino)butyliminomethyl]phenol], at β-amyloid (1–42) (Aβ42) (setting [2]), the inhibition at 100 µM came out at 57.9 ± 4.6%. Besides, the “Inhibitory activity against CES” value in the assay with porcine liver CES worked out at 20.8 ± 0.4%. For the same compound, the results for the IC50 (in assay [1]; on human erythrocyte AChE; on equine serum BChE) were 35800 ± 1900 nM, 743 ± 44 nM and 127 ± 6 nM, respectively. Besides, in assay [1], the “ABTS^•+ Scavenging Activity, TEAC” value was 0.42 ± 0.03. For the same compound, on EeAChE PAS, the “Propidium Displacement from EeAChE PAS” value worked out at 18.6 ± 1.6%. Further, in “FRAP assay”, the “FRAP, TE” value is 0.02.
Take `O=C1O[C@H]([C@@H](O)CO)C(O)=C1O` [Ascorbic acid, reference compound]: in assay [1], the IC50 was found to be 22600 ± 1200 nM and the “ABTS^•+ Scavenging Activity, TEAC” value was found to be 0.96 ± 0.03. Also, the “FRAP, TE” value in the assay “FRAP assay” was found to be 1.28 ± 0.11.
Turning to `CC[N+](C)(CC)CCC[n+]1c(-c2ccccc2)c2cc(N)ccc2c2ccc(N)cc21.[I-].[I-]` [Propidium iodide, reference compound], on β-amyloid (1–42) (Aβ42) (setting [2]), the “Inhibition of Aβ42 Self-Aggregation” value came to 90.7 ± 7.1%.
As to `O=C(O)c1ccccc1O` [Salicylic acid, reference compound], the inhibition at 100 µM at β-amyloid (1–42) (Aβ42) worked out at 6.5 ± 1.2%. The “Inhibitory activity against CES” value in the assay with porcine liver CES came to 8.9 ± 0.6%. Moreover, the “ABTS^•+ Scavenging Activity, TEAC” value in assay [1] is “no antiradical activity”. The concentration for half-maximal inhibition (IC50) on equine serum BChE came to 47600 ± 3200 nM. Also, the “FRAP, TE” value in the assay “FRAP assay” came out at 0.02.
For the compound `Cc1c(C)c2c(c(C)c1O)CCC(C)(C(=O)O)O2` (stereo not shown) [Trolox, 6-hydroxy-2,5,7,8-tetramethylchroman-2-carboxylic acid, reference compound], in assay [1], the 50% inhibitory concentration (IC50) came out at 19800 ± 800 nM and the “ABTS^•+ Scavenging Activity, TEAC” value turned out to be 1.00. In the assay “FRAP assay”, the “FRAP, TE” value is listed as 1.00.
